Test results published in ChEMBL document CHEMBL1123205, “Synthesis and antihypertensive activity of a series of 4-amino-6,7-dimethoxyquinazoline derivatives” (1986).

Tests used:
Format in all cases: functional
Rattus norvegicus [1] = assay: Antihypertensive activity determined as percent fall in blood pressure after 2 hr in spontaneously hypertensive rats administered with 10 mg/kg (po)
Rattus norvegicus [2] = assay: Antihypertensive activity determined as percent fall in blood pressure after 4 hours in spontaneously hypertensive rats administered with 10 mg/kg, (po)
Rattus norvegicus [3] = assay: Antihypertensive activity determined as percent fall in blood pressure after 4 hours in spontaneously hypertensive rats administered with 3 mg/kg, (po)
Rattus norvegicus [4] = assay: Antihypertensive activity determined as percent fall in blood pressure after 2 hr in spontaneously hypertensive rats administered with 3 mg/kg (po)

SMILES | Activity (Rattus norvegicus [1]) | Activity (Rattus norvegicus [2]) | Activity (Rattus norvegicus [3]) | Activity (Rattus norvegicus [4])
COc1cc2nc(N(C)CCCNC(=O)C3Cc4ccccc4O3)nc(N)c2cc1OC.Cl (configuration not stated) | -22% | -19% |  | 
COc1cc2nc(N(C)CCCNC(=O)c3cc4ccccc4o3)nc(N)c2cc1OC.Cl | 0% | 0% |  | 
COc1cc2nc(N(C)CCN(C)C(=O)c3ccccc3)nc(N)c2cc1OC | 0% | 0% |  | 
CCN(CCCN(C)C(=O)c1ccccc1)c1nc(N)c2cc(OC)c(OC)cc2n1.Cl | -16% | -12% |  | 
COc1cc2nc(N(C)CCCN(C)C(=O)c3ccccc3)nc(N)c2cc1OC.Cl | -23% | -15% |  | 
CCN(CCCN(CC)c1nc(N)c2cc(OC)c(OC)cc2n1)C(=O)c1ccco1.Cl | -16% | -11% |  | 
COc1cc2nc(NCCCNC(=O)c3ccccc3)nc(N)c2cc1OC.Cl | -9% | -7% |  | 
COc1cc2nc(N(C)CCCNC(=O)c3ccco3)nc(N)c2cc1OC.Cl | -20% | -17% |  | 
COc1cc2nc(N(C)CCCNC(=O)c3ccccc3)nc(N)c2cc1OC.Cl | -31% | -23% |  | 
COc1cc2nc(N(C)CCCN(C)C(=O)c3ccco3)nc(N)c2cc1OC.Cl | -24% | -20% |  | 
COc1cc2nc(N(C)CCCN(C)C(=O)c3cccnc3)nc(N)c2cc1OC.Cl | -5% | -9% |  | 
COc1cc2nc(N(C)CCCNC(=O)/C=C/c3ccccc3)nc(N)c2cc1OC.Cl | 0% | 3% |  | 
COc1cc2nc(N(C)CCCNC(=O)C3CCOC3)nc(N)c2cc1OC.Cl (configuration not stated) | -24% | -10% |  | 
COc1cc2nc(N(C)CCCN(C)C(=O)c3nnc(SC)o3)nc(N)c2cc1OC.Cl | -20% | -6% |  | 
COc1cc2nc(N(C)CCCN(C)C(=O)C3CCCO3)nc(N)c2cc1OC.Cl (configuration not stated) | -14% | -7% |  | 
COc1cc2nc(N(C)CCCNC(=O)C3CC3)nc(N)c2cc1OC.Cl | -19% | -12% |  | 
COc1cccc(C(=O)N(C)CCCN(C)c2nc(N)c3cc(OC)c(OC)cc3n2)c1.Cl | -12% | 0% |  | 
COc1cc2nc(N(C)CCCN(CC(C)C)C(=O)c3ccccc3)nc(N)c2cc1OC.Cl | 0% | 6% |  | 
CCN(CCCN(CC)c1nc(N)c2cc(OC)c(OC)cc2n1)C(=O)c1ccccc1.Cl | -1% | -5% |  | 
COc1cc2nc(NCCCN(C)C(=O)C3CCCO3)nc(N)c2cc1OC.Cl (configuration not stated) | -8% | -6% |  | 
COc1cc2nc(N(C)CCCNC(=O)C3CCCC3)nc(N)c2cc1OC.Cl | -30% | -20% |  | 
COc1cc2nc(N(C)CCCNC(=O)C3COc4ccccc4O3)nc(N)c2cc1OC.Cl (configuration not stated) | 2% | -6% |  | 
COc1cc2nc(N(C)CCN(C)C(=O)c3ccco3)nc(N)c2cc1OC.Cl | 0% | 0% |  | 
COc1cc2nc(N(C)CCCN(C)C(=O)c3cccc(C)c3)nc(N)c2cc1OC.Cl | -10% | 0% |  | 
COc1cc(OC)cc(C(=O)N(C)CCCN(C)c2nc(N)c3cc(OC)c(OC)cc3n2)c1.Cl | -6% | -2% |  | 
COc1cc2nc(N(C)CCCCN(C)C(=O)c3ccccc3)nc(N)c2cc1OC.Cl | -21% | -12% |  | 
COc1cc2nc(N(C)CCCN(C)C(=O)c3cc(OC)c(OC)c(OC)c3)nc(N)c2cc1OC.Cl | -11% | -6% |  | 
COc1cc2nc(N(C)CCCNC(=O)C3CCOCC3)nc(N)c2cc1OC | -27% | -7% |  | 
COc1cc2nc(N(C)CCCNC(=O)C3CCCO3)nc(N)c2cc1OC.Cl (configuration not stated) [ALFUZOSIN HYDROCHLORIDE] | -34% | -24% |  | 
COc1cc2nc(N3CCN(C(=O)c4ccco4)CC3)nc(N)c2cc1OC.Cl [PRAZOSIN HYDROCHLORIDE] | -37% | -35% | -25% | -30%
